Read-outs that look alike come from different tables or passages of the source.
Key:
Pseudomonas fluorescens = assay: Alternate Minimum Inhibitory Concentrations Test (Table 4), Ps.fl; type: cell-based; conditions: Table 4 alternate test; for MIC: Pseudomonas fluorescens, 250 ppm to 0.8 ppm in TSB, 72 hours, 30° C., read-out: MIC Ps.fl; for MIC Ps.fl (I = inactive): class symbol
Method: The compounds of Examples 1-8, 12-26, 28-33, 36-37, 39-42, 44-109, 111-114, and 116-120 were subjected also to the following alternate biocidal activity test procedures with the results as indicated in Table 4.
The MIC test measures the viability of Pseudomonas fluorescens inoculum in TSB when exposed for 72 hours to varying concentrations of test compound.
A 125 μl aliquot of 10,000 ppm test compound in acetone was added to 4.88 ml of TSB to provide a 250 ppm solution. From this solution, 100 μL was transferred to the first row of two microtiter plate columns. Both replicates and five additional compounds were all serially diluted 1:1 to a final concentration of 0.8 ppm in TSB.
Inoculation was accomplished by diluting a 24 hr Ps fl culture, four mls per 36 mls of phosphate buffer solution. A Dynatech autoinoculator was used to transfer 1.5 μl of this cell suspension to the microtiter plates. The plates were incubated at 30° C. for 3 days before the lowest concentration at which no growth occurs was recorded in the database.

[1] = test system: Pseudoperonospora cubensis; assay: whole plant or invertebrate; type: in vivo; conditions: Pseudoperonospora cubensis, in Cucumis sativus, 168 h; read-out: % Control CDM
Piricularia oryzae = assay: whole plant or invertebrate; type: in vivo; conditions: Pyricularia oryzae; for pest or weed control at 200 ppm: read-out: % Control RB, application rate 200 ppm; for pest or weed control at 100 ppm: read-out: % Control RB, application rate 100 ppm
Phytophthora infestans = assay: whole plant or invertebrate; type: in vivo; conditions: Phytophthora infestans, in Solanum lycopersicum, 96 h
[2] = test system: Puccinia recondita (f. sp. tritici Races PKB and PLD); assay: whole plant or invertebrate; type: in vivo; conditions: Puccinia recondita, 240 h; read-out: % Control WLR
[3] = test system: Erysiphe graminis (f. sp. tritici); assay: whole plant or invertebrate; type: in vivo; conditions: Blumeria graminis; read-out: % Control WPM
[4] = test system: Pellicularia filamentosa (f. sp. sasiki); assay: whole plant or invertebrate; type: in vivo; conditions: 120 h; read-out: % Control RSB
[5] = read-out: % Control TLB, application rate 200 ppm
[6] = read-out: % Control TLB, application rate 100 ppm

Row | Compound | MIC (Pseudomonas fluorescens) [mg/L] | pest or weed control at 200 ppm [1] [%] | pest or weed control at 200 ppm (Piricularia oryzae) [%] | pest or weed control at 200 ppm (Phytophthora infestans; read-out: % Control TLB) [%] | pest or weed control at 200 ppm [2] [%] | pest or weed control at 200 ppm [3] [%] | pest or weed control at 200 ppm (Phytophthora infestans; [5]) [%] | MIC Ps.fl (I = inactive) (Pseudomonas fluorescens) | pest or weed control at 200 ppm [4] [%] | pest or weed control at 100 ppm (Piricularia oryzae) [%] | pest or weed control at 100 ppm [4] [%] | pest or weed control at 100 ppm (Phytophthora infestans; read-out: % Control TLB) [%] | pest or weed control at 100 ppm [2] [%] | pest or weed control at 100 ppm [3] [%] | pest or weed control at 100 ppm (Phytophthora infestans; [6]) [%] | pest or weed control at 50 ppm (Piricularia oryzae; read-out: % Control RB, application rate 50 ppm) [%]
1 | CCCCCCCCNC(=O)/C=C\SC(=O)c1cnccc1Cl [Compound 108, N-octyl-cis-3-[(4-chloro-3-pyridine)carbonylthio]acrylamide] | > 250 | 90 | 0 | 90 | 0 | 0 | – | – | – | – | – | – | – | – | – | –
2 | CCCCCCCCNC(=O)/C=C\SC(=O)c1cc([N+](=O)[O-])ccc1[N+](=O)[O-] [Compound 107, N-octyl-cis-3-[(2,5-dinitrobenzoyl)thio]acrylamide] | > 250 | 0 | 0 | – | 0 | 50 | 0 | – | – | – | – | – | – | – | – | –
3 | CCCCCCCCNC(=O)/C=C\SC(=O)c1ccc(Br)o1 [Compound 111, N-octyl-cis-3-[(5-bromo-2-furoyl)thio]acrylamide] | > 250 | 85 | 0 | 80 | 0 | 0 | – | – | – | – | – | – | – | – | – | –
4 | CCCCCCCCNC(=O)/C=C\SC(=O)CCCCCCC(=O)OC [Compound 110, N-octyl-cis-3-[(7-methoxycarbonylheptanoyl)thio]acrylamide] | – | 70 | 75 | 90 | 0 | 0 | – | – | – | – | – | – | – | – | – | –
5 | CCCCCCCCNC(=O)/C=C\SC(=O)/C=C/C=C/c1ccccc1 [Compound 109, N-octyl-cis-3-[(trans,trans-5-phenyl-2,4-pentadienoyl)thio]acrylamide] | > 250 | 50 | 0 | – | 0 | 0 | 0 | – | – | – | – | – | – | – | – | –
6 | CCCCCCCCNC(=O)/C=C\SC(=O)c1ccc(Cl)c([N+](=O)[O-])c1 [Compound 104, N-octyl-cis-3-[(3-nitro-4-chlorobenzoyl)thio]acrylamide] | > 250 | 0 | 50 | – | 0 | 0 | 0 | – | – | – | – | – | – | – | – | –
7 | CCCCCCCCNC(=O)/C=C\SC(=O)CCCCC(=O)OC [Compound 118, N-octyl-cis-3-[(5-methoxycarbonylpentanoyl)thio]acrylamide] | – | 100 | 75 | 90 | 0 | 0 | – | I | – | – | – | – | – | – | – | –
8 | CCCCCCCCNC(=O)/C=C\SC(=O)c1ccc([N+](=O)[O-])cc1C [Compound 99, N-octyl-cis-3-[(2-methyl-4-nitrobenzoyl)thio]acrylamide] | > 250 | 50 | 75 | – | 0 | 50 | 0 | – | – | – | – | – | – | – | – | –
9 | CCCCCCCCNC(=O)/C=C\SC(=O)c1cccc(Cl)c1Cl [Compound 102, N-octyl-cis-3-[(2,3-dichlorobenzoyl)thio]acrylamide] | > 250 | 50 | 50 | – | 0 | 0 | 0 | – | – | – | – | – | – | – | – | –
10 | CCCCCCCCNC(=O)/C=C\SC(=O)c1ccc(Cl)cc1Cl [Compound 100, N-octyl-cis-3-[(2,4-dichlorobenzoyl)thio]acrylamide] | > 250 | 50 | 0 | – | 0 | 50 | 0 | – | – | – | – | – | – | – | – | –
11 | CCCCCCCCNC(=O)/C=C\SC(=O)c1ccc(C)cc1 [Compound 106, N-octyl-cis-3-[(4-methylbenzoyl)thio]acrylamide] | > 250 | 50 | 0 | – | 0 | 0 | 0 | – | – | – | – | – | – | – | – | –
12 | CCCCCCCCNC(=O)/C=C\SC(=O)CCCCCCCCC(=O)OC [Compound 119, N-octyl-cis-3-[(9-methoxycarbonylnonanoyl)thio]acrylamide] | – | 70 | 50 | 80 | 0 | 0 | – | I | – | – | – | – | – | – | – | –
13 | CCCCCCCCNC(=O)/C=C\SC(=O)c1cnc2ccccc2c1 [Compound 72, N-octyl-cis-3-[(3-quinoline)carbonylthio]acrylamide] | > 250 | – | 0 | 90 | 0 | 0 | – | – | 50 | – | – | – | – | – | – | –
14 | CCCCCCCCNC(=O)/C=C\SC(=O)COCC [Compound 60, N-octyl-cis-3-(ethoxyacetylthio)acrylamide] | > 250 | – | 50 | – | 25 | 0 | 95 | – | 0 | – | – | – | – | – | – | –
15 | CCCCCCCCNC(=O)/C=C\SC(=O)c1ccsc1 [Compound 65, N-octyl-cis-3-[(3-thiophene)carbonylthio]acrylamide] | > 250 | – | 0 | – | 0 | 0 | 95 | – | 0 | – | – | – | – | – | – | –
16 | CCCCCCCCNC(=O)/C=C\SC(=O)c1c(Cl)cccc1Cl [Compound 21, N-octyl-cis-3-[(2,6-dichlorobenzoyl)thio]acrylamide] | > 250 | – | – | – | – | – | – | – | – | 0 | 0 | 80 | 0 | 0 | – | –
17 | CCCCCCCCNC(=O)/C=C\SC(=O)c1c(F)cc(F)cc1F [Compound 28, N-octyl-cis-3-[(2,4,6-trifluorobenzoyl)thio]acrylamide] | > 250 | – | – | – | – | – | – | – | – | 90 | 0 | – | 0 | 0 | 0 | –
18 | CCCCCCCCNC(=O)/C=C\SC(=O)CCCCCCC [Compound 23, N-octyl-cis-3-(octanoylthio)acrylamide] | > 250 | – | – | – | – | – | – | – | – | 0 | 80 | – | 0 | 0 | 0 | –
19 | CCCCCCCCNC(=O)/C=C\SC(=O)c1ccccc1 [Compound 1, N-octyl-cis-3-(benzoylthio)acrylamide] | > 250 | – | – | – | – | – | – | – | – | 0 | 0 | – | 0 | 0 | 100 | –
20 | CCCCCCCCNC(=O)/C=C\SC(=O)/C=C/c1cccs1 [Compound 66, N-octyl-cis-3-[(trans-3-(2-thiophene)propenoyl)thio]acrylamide] | > 250 | – | – | 90 | 0 | 0 | – | – | 0 | – | – | – | – | – | – | 50

From US5300672A (priority 1992, dated 1994)
